Target: KHK-C (Homo sapiens (Human), UniProt P50053)
Assay: Assay A: coupled-enzyme KHK absorbance assay, 10 nM KHK-C
Conditions: read-out: IC50 (nM) Assay A (Table 4); 10 nM KHK-C, 0.8 mM fructose, 0.2 mM ATP; avg of (#) runs
Source text: A screening assay was developed for KHK involving a coupled enzyme system which used the product of the KHK reaction to drive an absorbance signal in kinetic mode. KHK takes fructose and ATP and converts it to F1P and ADP. ADP then serves as substrate to pyruvate kinase which converts PEP to pyruvate which is then reduced to lactate by lactate dehydrogenase with the concomitant oxidation of NADH to NAD+. The resulting depletion of NADH was monitored by measuring absorbance at 340 nm.
Recombinant human KHK-C and KHK-A were expressed in E. coli as a His-tagged fusion protein and purified using Ni-NTA chromatography.
Compounds were prepared in DMSO as 4 mM stocks, diluted using an 11-point half-log scheme on a Biomek FX (Beckman Coulter), and incubated at rt for 30 minutes with the reaction mixture containing 50 mM HEPES, pH 7.4, 140 mM KCl, 3.5 mM MgCl2, 0.8 mM fructose, 2 mM TCEP, 0.8 mM PEP, 0.7 mM NADH, 0.01% Triton X-100, 30 U/mL pyruvate kinase-lactate dehydrogenase, and 10 nM purified KHK-C. The compound concentration in each well ranged from 1 nM to 100 μM. The reaction was initiated with the addition of 0.2 mM ATP. The absorbance was measured for 30 minutes on a SpectraMax reader (Molecular Devices) after ATP was added. The concentrations provided are based on the final mixture volume of 40 μL (referred to as the final concentration).
Controls: N8-(cyclopropylmethyl)-N4-(2-(methylthio)phenyl)-2-(piperazin-1-yl)pyrimido[5,4-d]pyrimidine-4,8-diamine at 2 μM final concentration was used as high percent effect (HPE) control, and 2.5% DMSO which was present in all reaction wells was used as zero percent effect (ZPE) control. Reaction rates were obtained for 300-1800 seconds time window in units of 1000*AU/min (absorbance unit per minute), and average values for ZPE and HPE controls from 16 wells each were calculated, AveZPE and AveHPE, respectively.
Percent inhibition (% inhibition) was calculated for each well using this equation:
For each compound tested, the IC50 provided is the average based on at least two separate assays conducted on separate days.

KHK-C, sequence (P50053 whole entry): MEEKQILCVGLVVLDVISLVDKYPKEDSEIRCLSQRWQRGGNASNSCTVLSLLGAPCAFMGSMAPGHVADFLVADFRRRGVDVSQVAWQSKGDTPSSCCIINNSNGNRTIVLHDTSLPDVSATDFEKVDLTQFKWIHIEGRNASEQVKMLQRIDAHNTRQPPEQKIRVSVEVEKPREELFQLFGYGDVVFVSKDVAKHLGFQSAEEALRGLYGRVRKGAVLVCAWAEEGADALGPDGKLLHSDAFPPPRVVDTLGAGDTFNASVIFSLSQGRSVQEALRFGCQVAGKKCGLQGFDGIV

Structure (SMILES)	IC50 [nM]
Cc1c(N2C[C@@H]3[C@@H](CC(=O)O)[C@@H]3C2)nc(N2C[C@@](C)(O)[C@@H]2C)nc1C(F)(F)F [Example 26, [(1R,5S,6R)-3-{2-[(2S,3R)-3-hydroxy-2,3-dimethylazetidin-1-yl]-5-methyl-6-(trifluoromethyl)pyrimidin-4-yl}-3-azabicyclo[3.1.0]hex-6-yl]acetic acid]	63.6
C[C@H]1[C@H](O)CN1c1cc(N2C[C@@H]3[C@@H](CC(=O)O)[C@@H]3C2)cc(C(F)(F)F)n1 [Example 27, [(1R,5S,6R)-3-{2-[(2S,3R)-3-hydroxy-2-methylazetidin-1-yl]-6-(trifluoromethyl)pyridin-4-yl}-3-azabicyclo[3.1.0]hex-6-yl]acetic acid]	109
C[C@H]1CCCN1c1nc(N2C[C@@H]3[C@@H](CC(=O)O)[C@@H]3C2)cc(C(F)(F)F)n1 [Example 28, [(1R,5S,6R)-3-{2-[(2S)-2-methylpyrrolidin-1-yl]-6-(trifluoromethyl)pyrimidin-4-yl}-3-azabicyclo[3.1.0]hex-6-yl]acetic acid]	120
COc1c(C(F)F)nc(N2C[C@@H](O)[C@@H]2C)nc1N1C[C@@H]2[C@@H](CC(=O)O)[C@@H]2C1 [Example 29, [(1R,5S,6R)-3-{6-(difluoromethyl)-2-[(2S,3R)-3-hydroxy-2-methylazetidin-1-yl]-5-methoxypyrimidin-4-yl}-3-azabicyclo[3.1.0]hex-6-yl]acetic acid]	265
C[C@H]1[C@H](O)CN1c1nc(N2C[C@@H]3[C@@H](CC(=O)O)[C@@H]3C2)nc(C(F)(F)F)n1 [Example 30, [(1R,5S,6R)-3-{4-[(2S,3R)-3-hydroxy-2-methylazetidin-1-yl]-6-(trifluoromethyl)-1,3,5-triazin-2-yl}-3-azabicyclo[3.1.0]hex-6-yl]acetic acid]	509
N#Cc1c(C(F)(F)F)cc(N2C[C@@H]3[C@@H](CC(=O)O)[C@@H]3C2)nc1C1CCC1 [Example 31, {(1R,5S,6s)-3-[5-cyano-6-cyclobutyl-4-(trifluoromethyl)pyridin-2-yl]-3-azabicyclo[3.1.0]hex-6-yl}acetic acid]	30
C[C@H]1[C@H](O)CN1c1cc(N2C[C@@H]3[C@@H](CC(=O)O)[C@@H]3C2)nc(C(F)(F)F)n1 [Example 32, [(1R,5S,6R)-3-{6-[(2S,3R)-3-hydroxy-2-methylazetidin-1-yl]-2-(trifluoromethyl)pyrimidin-4-yl}-3-azabicyclo[3.1.0]hex-6-yl]acetic acid]	1760
Cc1c(N2C[C@@H]3[C@@H](CC(=O)O)[C@@H]3C2)nc(N2C[C@@H](O)[C@@H]2C)nc1C(C)(F)F [Example 33, [(1R,5S,6R)-3-{6-(1,1-difluoroethyl)-2-[(2S,3R)-3-hydroxy-2-methylazetidin-1-yl]-5-methylpyrimidin-4-yl}-3-azabicyclo[3.1.0]hex-6-yl]acetic acid]	114
C[C@H]1[C@H](O)CN1c1cc(N2C[C@@H]3[C@@H](CC(=O)O)[C@@H]3C2)cc(C(C)(F)F)n1 [Example 34, [(1R,5S,6R)-3-{2-(1,1-difluoroethyl)-6-[(2S,3R)-3-hydroxy-2-methylazetidin-1-yl]pyridin-4-yl}-3-azabicyclo[3.1.0]hex-6-yl]acetic acid]	331
C[C@H]1C[C@H](O)CN1c1nc(N2C[C@@H]3[C@@H](CC(=O)O)[C@@H]3C2)c(Cl)c(C(F)(F)F)n1 [Example 35, [(1R,5S,6R)-3-{5-chloro-2-[(2S,4S)-4-hydroxy-2-methylpyrrolidin-1-yl]-6-(trifluoromethyl)pyrimidin-4-yl}-3-azabicyclo[3.1.0]hex-6-yl]acetic acid]	188
C[C@@H]1N(c2nc(C(F)F)c(Cl)c(N3C[C@@H]4[C@@H](CC(=O)O)[C@@H]4C3)n2)C[C@@]1(C)O [Example 36, [(1R,5S,6R)-3-{5-chloro-6-(difluoromethyl)-2-[(2S,3R)-3-hydroxy-2,3-dimethylazetidin-1-yl]pyrimidin-4-yl}-3-azabicyclo[3.1.0]hex-6-yl]acetic acid]	103
N#Cc1c(C(F)F)cc(N2C[C@@H]3[C@@H](CC(=O)O)[C@@H]3C2)nc1N1CCCC1 [Example 37, {(1R,5S,6s)-3-[5-cyano-4-(difluoromethyl)-6-(pyrrolidin-1-yl)pyridin-2-yl]-3-azabicyclo[3.1.0]hex-6-yl}acetic acid]	58.3
CC1CCCN1c1nc(N2C[C@@H]3[C@@H](CC(=O)O)[C@@H]3C2)cc(C(F)F)c1C#N (stereo partly drawn) [Example 38, {(1R,5S,6s)-3-[5-cyano-4-(difluoromethyl)-6-(2-methylpyrrolidin-1-yl)pyridin-2-yl]-3-azabicyclo[3.1.0]hex-6-yl}acetic acid]	25.3
CC1CCCCN1c1nc(N2C[C@@H]3[C@@H](CC(=O)O)[C@@H]3C2)cc(C(F)(F)F)n1 (stereo partly drawn) [Example 39, {(1R,5S,6s)-3-[2-(2-methylpiperidin-1-yl)-6-(trifluoromethyl)pyrimidin-4-yl]-3-azabicyclo[3.1.0]hex-6-yl}acetic acid]	24.8
CCc1c(C(F)F)nc(N2C[C@@H](O)[C@@H]2C)nc1N1C[C@@H]2[C@@H](CC(=O)O)[C@@H]2C1 [Example 41, [(1R,5S,6R)-3-{6-(difluoromethyl)-5-ethyl-2-[(2S,3R)-3-hydroxy-2-methylazetidin-1-yl]pyrimidin-4-yl}-3-azabicyclo[3.1.0]hex-6-yl]acetic acid]	111
Cc1c(N2C[C@@H]3[C@@H](CC(=O)O)[C@@H]3C2)nc(N2CC[C@@H]2C)nc1C(C)(F)F [Example 44, [(1R,5S,6R)-3-{6-(1,1-difluoroethyl)-5-methyl-2-[(2S)-2-methylazetidin-1-yl]pyrimidin-4-yl}-3-azabicyclo[3.1.0]hex-6-yl]acetic acid]	51.4
C[C@H]1[C@H](O)CN1c1nc(C(F)F)c(C2CC2)c(N2C[C@@H]3[C@@H](CC(=O)O)[C@@H]3C2)n1 [Example 45, [(1R,5S,6R)-3-{5-cyclopropyl-6-(difluoromethyl)-2-[(2S,3R)-3-hydroxy-2-methylazetidin-1-yl]pyrimidin-4-yl}-3-azabicyclo[3.1.0]hex-6-yl]acetic acid]	238
N#Cc1c(C(F)(F)F)cc(N2C[C@@H]3[C@@H](CC(=O)O)[C@@H]3C2)nc1N1CCC1 [Example 46, {(1R,5S,6s)-3-[6-(azetidin-1-yl)-5-cyano-4-(trifluoromethyl)pyridin-2-yl]-3-azabicyclo[3.1.0]hex-6-yl}acetic acid]	21.5
O=C(O)C[C@@H]1[C@H]2CN(c3cc(C(F)(F)F)nc(N4CCC4)n3)C[C@@H]12 [Example 47, {(1R,5S,6s)-3-[2-(azetidin-1-yl)-6-(trifluoromethyl)pyrimidin-4-yl]-3-azabicyclo[3.1.0]hex-6-yl}acetic acid]	619
C[C@@H]1N(c2nc(N3C[C@@H]4[C@H](C3)[C@H]4CS(C)(=O)=O)c(Cl)c(C(F)(F)F)n2)C[C@@]1(C)O [Example 48, (2S,3R)-1-[5-chloro-4-{(1R,5S,6S)-6-[(methylsulfonyl)methyl]-3-azabicyclo[3.1.0]hex-3-yl}-6-(trifluoromethyl)pyrimidin-2-yl]-2,3-dimethylazetidin-3-ol]	1360
N#Cc1c(C(F)F)cc(N2C[C@@H]3[C@@H](CC(=O)O)[C@@H]3C2)nc1NC1CCC1 [Example 51, {(1R,5S,6s)-3-[5-cyano-6-(cyclobutylamino)-4-(difluoromethyl)pyridin-2-yl]-3-azabicyclo[3.1.0]hex-6-yl}acetic acid]	150

Source: patent publication US10174007B2, “Substituted 3-azabicyclo[3.1.0]hexanes as ketohexokinase inhibitors” (Pfizer Inc., priority 2015, dated 2019)
